From paper PMC8002893, “Influence of Complexation of Thiosemicarbazone Derivatives with Cu (II) Ions on Their Antitumor Activity against Melanoma Cells” (International Journal of Molecular Sciences, 2021)

Tests used:
[1] = tested on: BJ human normal fibroblast cells; assay: MTT cell viability assay, BJ normal fibroblasts; format: cell-based; conditions: Homo sapiens, Fibroblast, MTT test, 24 h treatment
Method: (§1) The evaluation of cytotoxicity of tested compounds was carried out on the G361, A375, and SK-MEL-28 human melanoma cells and BJ human normal fibroblast cells. The cell lines were obtained from American Type Culture Collection (ATCC, Manassas, VA, USA). The cells were cultured at 37 °C in the presence of 5% CO2 in atmosphere. The culture medium (Dulbecco’s Modified Eagle’s Medium for G361 and A375 and Eagle’s Minimum Essential Medium for SK-MEL-28 and BJ) was supplemented with 10% foetal bovine serum. The cells morphology was examined under inverted phase contrast microscope Nikon Eclipse Ti (Nikon, Tokyo, Japan). The authenticity of tested cell lines was verified by short tandem repeat (STR) genotyping in the Department of Forensic Medicine (Medical University of Lublin, Lublin, Poland).
(§2) The cells were seeded into 96-well plates (in concentration: BJ, A375, and SK-MEL-28—1 × 10^5 cells/mL, G361—1.5 × 10^5 cells/mL) and cultured until they reach 70–80% confluency. Then the cells were incubated with tested compounds and dacarbazine in concentrations ranging from 10 to 500 µM or DMSO as vehicle in control cultures for next 24 h (max. DMSO concentration <0.5%). The compounds cytotoxicity was evaluated with the MTT colorimetric method based on the ability of viable cells to the transformation of tetrazolium salts (3-[4,5-dimethylthiazol-2-yl]-2,5-) diphenyltetrazolium bromide, MTT) to purple formazan, by cellular dehydrogenases. After 24-h-incubation cell cultures were supplemented with 20 µL of 5 mg/mL MTT (Thermofisher, Waltham, MA, USA) stock in PBS (Corning, NY, USA), and the incubation was continued for 4 h at 37 °C. Next, the medium with MTT was removed, and the formed crystals were dissolved in 200 µL of DMSO (dimethyl sulfoxide, Avantor, Gliwice, Poland). The solution absorbency was measured at 570 nm, using a PowerWave™ xs microplate spectrophotometer (BioTek Instruments, Winooski, VT, USA). The experiment was performed three times with three replicates for each concentration of tested compounds. IC50 values were determined using the AAT Bioquest IC50 calculator [51]. On the basis of obtained IC50 values for normal and malignant cells, A375 cell line and three tested compounds (CuT1, Cu10, CuT16) were chosen for further investigation.

[2] = tested on: G361 human melanoma cells; assay: MTT cell viability assay, G361 melanoma; format: cell-based; conditions: Homo sapiens, G-361; G361, MTT test, 24 h treatment
Method: as §1, §2

[3] = tested on: A375 human melanoma cells; assay: MTT cell viability assay, A375 melanoma; format: cell-based; conditions: Homo sapiens, A-375; A375, MTT test, 24 h treatment
Method: as §1, §2

[4] = tested on: SK-MEL-28 human melanoma cells; assay: MTT cell viability assay, SK-MEL-28 melanoma; format: cell-based; conditions: Homo sapiens; SK-MEL-28, MTT test, 24 h treatment
Method: as §1, §2

Row | melting point [°C] | IC50 [2] [µM] | IC50 [3] [µM] | IC50 [4] [µM] | Structure (SMILES) | IC50 [1] [µM]
1 | 209 to 211 |  |  |  | S=C(NN=Cc1ccc(Br)cc1)Nc1ccccc1Cl [T9, 2-[(4-Bromophenyl)methylidene]-N-(2-chlorophenyl)hydrazine-1-carbothioamide] | 
2 | 115 to 117 |  |  |  | CC(=NNC(=S)Nc1ccccc1Cl)c1ccccc1 [T11, N-(2-Chlorophenyl)-2-(1-phenylethylidene)hydrazine-1-carbothioamide] | 
3 | 210 to 211 | 177 ± 4.09 | 112 ± 12.8 | 99.6 ± 5.76 | S=C(NN=Cc1ccc(Cl)c(Cl)c1)Nc1ccccc1Cl [T12, 2-[(3,4-Dichlorophenyl)methylidene]-N-(2-chlorophenyl)hydrazine-1-carbothioamide] | 129 ± 7.09

More lines, now with the values behind:

Row | Structure (SMILES) | melting point [°C] | IC50 [2] [µM] | IC50 [3] [µM] | IC50 [4] [µM] | IC50 [1] [µM]
4 | Cc1ccccc1NC(=S)NN=Cc1ccc(Cl)c(Cl)c1 [T8, 2-[(3,4-Dichlorophenyl)methylidene]-N-(2-methylphenyl)hydrazine-1-carbothioamide] | 200 to 202 |  |  |  | 
5 | COc1ccc(C=NNC(=S)Nc2ccccc2Cl)cc1OC [T10] | 179 to 180 | 370 ± 9.34 | 202 ± 4.87 | < 500 | 402 ± 13
6 | S=C(NN=Cc1ccc(Br)cc1)Nc1cccc(Cl)c1 [T13, 2-[(4-Bromophenyl)methylidene]-N-(3-chlorophenyl)hydrazine-1-carbothioamide] | 162 to 164 | 396 ± 6.74 | 389 ± 7.06 | 399 ± 4.64 | 412.8 ± 3.23
7 | S=C(NN=Cc1ccc(Cl)c(Cl)c1)Nc1cccc(Cl)c1 [T15, N-(3-Chlorophenyl)-2-[(3,4-dichlorophenyl)methylidene]hydrazine-1-carbothioamide] | 210 to 212 |  |  |  | 
8 | COc1ccc(C=NNC(=S)Nc2ccc(Cl)cc2)cc1OC [T16] | 200 to 202 | > 500 | > 500 | > 500 | > 500
9 | S=C(NN=Cc1ccc(Cl)c(Cl)c1)Nc1ccc(Cl)cc1 [T17, N-(4-Chlorophenyl)-2-[(3,4-dichlorophenyl)methylidene]hydrazine-1-carbothioamide] | 202 to 204 |  |  |  | 
10 | S=C(NN=Cc1ccc(Br)cc1)Nc1ccc(Cl)cc1 [T18, 2-[(4-Bromophenyl)methylidene]-N-(4-chlorophenyl)hydrazine-1-carbothioamide] | 182 to 184 |  |  |  | 
